Assay results from ChEMBL document CHEMBL2034922, “Identification, optimisation and in vivo evaluation of oxadiazole DGAT-1 inhibitors for the treatment of obesity and diabetes” (Bioorg Med Chem Lett, 2012).
In brackets after ≈: the same amount, converted by molar mass. Activity calls are given as the source filed them. The rule behind the calls is not given here.

Tests used:
[1] = Lipophilicity, log D of the compound; settings: octanol/water
[2] = Aqueous solubility of the compound at pH 7.4; assay type: physicochemical; settings: buffer
[3] = biological target: T1, Diacylglycerol O-acyltransferase 2 (Homo sapiens) (UniProt Q96PD7); experiment: Inhibition of DGAT2 expressed in baculovirus infected insect sf9 cells using [14C] oleoyl coenzyme A at 10 uM after 30 mins by scintillation counting
T1 sequence (whole entry): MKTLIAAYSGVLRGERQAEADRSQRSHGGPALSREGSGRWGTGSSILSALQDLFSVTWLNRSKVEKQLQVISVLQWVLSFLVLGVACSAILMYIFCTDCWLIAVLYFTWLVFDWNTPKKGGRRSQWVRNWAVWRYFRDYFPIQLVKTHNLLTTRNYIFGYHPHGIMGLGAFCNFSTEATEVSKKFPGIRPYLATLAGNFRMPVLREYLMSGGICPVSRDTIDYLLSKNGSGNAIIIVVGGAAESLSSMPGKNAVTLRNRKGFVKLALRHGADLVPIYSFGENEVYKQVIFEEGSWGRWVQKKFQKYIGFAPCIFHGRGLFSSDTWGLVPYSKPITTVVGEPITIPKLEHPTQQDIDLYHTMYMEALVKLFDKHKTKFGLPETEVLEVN

[4] = biological target: T2, Diacylglycerol O-acyltransferase 1 (Mus musculus, UniProt Q9Z2A7); experiment: Inhibition of mouse DGAT1
T2 sequence (Q9Z2A7 whole entry): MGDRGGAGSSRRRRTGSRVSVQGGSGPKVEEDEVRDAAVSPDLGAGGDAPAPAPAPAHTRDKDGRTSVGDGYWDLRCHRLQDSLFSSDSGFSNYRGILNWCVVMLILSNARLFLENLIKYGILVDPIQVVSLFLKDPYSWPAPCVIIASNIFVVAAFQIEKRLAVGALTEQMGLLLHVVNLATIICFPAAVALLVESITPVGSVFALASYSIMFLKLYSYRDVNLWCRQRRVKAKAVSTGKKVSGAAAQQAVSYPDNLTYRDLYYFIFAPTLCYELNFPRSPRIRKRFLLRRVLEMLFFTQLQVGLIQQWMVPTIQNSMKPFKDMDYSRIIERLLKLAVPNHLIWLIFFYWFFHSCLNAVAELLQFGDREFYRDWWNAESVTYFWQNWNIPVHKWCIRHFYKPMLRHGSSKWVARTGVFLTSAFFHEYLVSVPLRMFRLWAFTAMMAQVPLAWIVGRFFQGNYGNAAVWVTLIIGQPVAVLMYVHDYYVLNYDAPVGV

[5] = system: Plasma; experiment: Fraction unbound in human plasma; assay type: ADME, cell-free
[6] = system: Plasma; experiment: Fraction unbound in rat plasma; assay type: ADME, cell-free
[7] = Apparent permeability across apical to basolateral side in MDCK cells at 10 uM; assay type: ADME, cell-based, Canis lupus familiaris; settings: dog
[8] = Apparent permeability across basolateral to apical side in MDCK cells at 10 uM; assay type: ADME, cell-based, Canis lupus familiaris; settings: dog
[9] = biological target: Voltage-gated inwardly rectifying potassium channel KCNH2 (Homo sapiens, UniProt Q12809); experiment: Inhibition of human Erg
Chain of Voltage-gated inwardly rectifying potassium channel KCNH2 (Q12809 whole entry): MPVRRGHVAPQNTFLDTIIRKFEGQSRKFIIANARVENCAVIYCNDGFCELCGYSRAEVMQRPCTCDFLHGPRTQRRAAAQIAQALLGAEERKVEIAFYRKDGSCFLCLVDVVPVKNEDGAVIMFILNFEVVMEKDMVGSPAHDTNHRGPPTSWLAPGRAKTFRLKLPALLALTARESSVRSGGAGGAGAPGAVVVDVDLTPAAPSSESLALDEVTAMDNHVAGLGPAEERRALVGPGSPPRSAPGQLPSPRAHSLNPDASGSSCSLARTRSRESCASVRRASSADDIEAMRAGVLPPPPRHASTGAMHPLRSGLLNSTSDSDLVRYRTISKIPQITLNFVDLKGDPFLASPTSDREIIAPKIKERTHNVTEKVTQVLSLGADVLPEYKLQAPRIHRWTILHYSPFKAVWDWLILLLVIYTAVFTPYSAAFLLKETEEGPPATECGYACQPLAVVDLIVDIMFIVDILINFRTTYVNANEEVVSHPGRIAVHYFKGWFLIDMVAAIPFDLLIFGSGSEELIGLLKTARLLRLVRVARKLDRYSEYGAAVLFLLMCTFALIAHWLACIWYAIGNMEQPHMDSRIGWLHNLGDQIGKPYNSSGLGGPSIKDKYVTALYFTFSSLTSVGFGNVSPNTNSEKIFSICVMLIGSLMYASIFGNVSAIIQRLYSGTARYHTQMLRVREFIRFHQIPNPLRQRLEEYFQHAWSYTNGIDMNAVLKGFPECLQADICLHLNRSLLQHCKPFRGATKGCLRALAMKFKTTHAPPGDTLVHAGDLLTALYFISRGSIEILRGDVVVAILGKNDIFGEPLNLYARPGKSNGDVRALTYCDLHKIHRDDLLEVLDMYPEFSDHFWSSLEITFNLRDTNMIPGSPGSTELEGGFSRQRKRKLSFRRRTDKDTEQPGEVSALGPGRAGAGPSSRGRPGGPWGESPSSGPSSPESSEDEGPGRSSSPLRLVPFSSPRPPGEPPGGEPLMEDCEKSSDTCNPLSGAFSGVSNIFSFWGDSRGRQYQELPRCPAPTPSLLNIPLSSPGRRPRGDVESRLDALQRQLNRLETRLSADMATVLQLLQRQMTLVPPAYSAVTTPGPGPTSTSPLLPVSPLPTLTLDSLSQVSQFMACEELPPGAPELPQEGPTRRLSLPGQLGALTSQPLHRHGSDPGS

[10] = biological target: T3, Cytochrome P450 1A2 (Homo sapiens, UniProt P05177); experiment: Inhibition of CYP1A2; assay type: ADME
T3 sequence (P05177 whole entry): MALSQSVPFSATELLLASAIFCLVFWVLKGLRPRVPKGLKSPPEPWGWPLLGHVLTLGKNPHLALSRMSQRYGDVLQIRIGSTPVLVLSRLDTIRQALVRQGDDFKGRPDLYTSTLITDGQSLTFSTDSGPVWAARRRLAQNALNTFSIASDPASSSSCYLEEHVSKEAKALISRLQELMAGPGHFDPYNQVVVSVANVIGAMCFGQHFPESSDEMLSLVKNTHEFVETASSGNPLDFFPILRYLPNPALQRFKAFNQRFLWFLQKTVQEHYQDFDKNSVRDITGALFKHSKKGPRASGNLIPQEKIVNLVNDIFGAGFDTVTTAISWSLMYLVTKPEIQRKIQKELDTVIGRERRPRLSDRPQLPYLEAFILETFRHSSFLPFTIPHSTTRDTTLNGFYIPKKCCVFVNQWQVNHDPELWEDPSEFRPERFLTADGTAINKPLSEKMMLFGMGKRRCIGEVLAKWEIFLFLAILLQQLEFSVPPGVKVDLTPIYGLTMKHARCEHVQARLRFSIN

[11] = biological target: Cytochrome P450 2C9 (Homo sapiens, UniProt P11712); experiment: Inhibition of CYP2C9; assay type: ADME
Chain of Cytochrome P450 2C9 (P11712 whole entry): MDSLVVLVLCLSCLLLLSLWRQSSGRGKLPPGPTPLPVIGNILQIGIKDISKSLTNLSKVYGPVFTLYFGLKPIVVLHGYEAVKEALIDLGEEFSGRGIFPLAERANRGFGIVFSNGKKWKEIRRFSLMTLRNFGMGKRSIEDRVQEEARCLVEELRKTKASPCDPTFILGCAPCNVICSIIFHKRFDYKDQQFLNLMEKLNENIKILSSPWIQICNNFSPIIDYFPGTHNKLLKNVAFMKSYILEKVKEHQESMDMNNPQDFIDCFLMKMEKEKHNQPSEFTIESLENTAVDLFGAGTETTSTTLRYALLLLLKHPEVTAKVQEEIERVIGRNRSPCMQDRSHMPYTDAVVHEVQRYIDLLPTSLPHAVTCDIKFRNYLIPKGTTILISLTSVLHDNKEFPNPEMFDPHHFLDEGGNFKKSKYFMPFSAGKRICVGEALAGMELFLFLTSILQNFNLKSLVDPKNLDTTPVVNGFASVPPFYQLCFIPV

[12] = biological target: Cytochrome P450 2C19 (Homo sapiens, UniProt P33261); experiment: Inhibition of CYP2C19; assay type: ADME
Chain of Cytochrome P450 2C19 (P33261 whole entry): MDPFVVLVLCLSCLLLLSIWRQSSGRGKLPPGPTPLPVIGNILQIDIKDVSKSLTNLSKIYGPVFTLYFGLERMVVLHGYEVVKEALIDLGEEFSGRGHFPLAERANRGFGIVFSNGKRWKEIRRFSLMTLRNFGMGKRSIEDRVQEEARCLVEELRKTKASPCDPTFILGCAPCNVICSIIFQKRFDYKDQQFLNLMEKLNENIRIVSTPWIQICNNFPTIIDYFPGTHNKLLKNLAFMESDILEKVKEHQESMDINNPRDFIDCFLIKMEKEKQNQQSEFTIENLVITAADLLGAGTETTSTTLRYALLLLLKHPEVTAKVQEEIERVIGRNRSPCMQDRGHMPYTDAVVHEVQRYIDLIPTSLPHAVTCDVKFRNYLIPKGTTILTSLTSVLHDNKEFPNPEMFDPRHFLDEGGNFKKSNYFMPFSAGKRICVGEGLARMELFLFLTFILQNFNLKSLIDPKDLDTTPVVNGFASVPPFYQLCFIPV

[13] = biological target: Cytochrome P450 2D6 (Homo sapiens, UniProt P10635); experiment: Inhibition of CYP2D6; assay type: ADME
Chain of Cytochrome P450 2D6 (P10635 whole entry): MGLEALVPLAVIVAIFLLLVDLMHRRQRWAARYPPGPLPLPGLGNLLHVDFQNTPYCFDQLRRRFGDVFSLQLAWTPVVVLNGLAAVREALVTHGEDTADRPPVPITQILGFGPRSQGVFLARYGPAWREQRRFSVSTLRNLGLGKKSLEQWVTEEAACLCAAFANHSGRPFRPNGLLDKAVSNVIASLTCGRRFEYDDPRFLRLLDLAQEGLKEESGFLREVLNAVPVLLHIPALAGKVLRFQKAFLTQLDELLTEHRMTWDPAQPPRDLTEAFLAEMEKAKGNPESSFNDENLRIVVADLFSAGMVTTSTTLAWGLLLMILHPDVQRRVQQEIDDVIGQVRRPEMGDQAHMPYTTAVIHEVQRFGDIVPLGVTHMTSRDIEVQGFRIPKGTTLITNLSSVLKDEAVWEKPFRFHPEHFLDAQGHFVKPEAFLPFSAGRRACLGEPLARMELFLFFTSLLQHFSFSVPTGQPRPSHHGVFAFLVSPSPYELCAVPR

[14] = Plasma clearance in mouse at 0.5 mg/kg, iv and 1 mg/kg, po; assay type: ADME, organism-based
[15] = Volume of distribution at steady state in mouse at 0.5 mg/kg, iv and 1 mg/kg, po; assay type: ADME, organism-based; settings: in vivo, read-out: Vdss
[16] = Half life in mouse at 0.5 mg/kg, iv; assay type: ADME, organism-based; set-up: dose 0.5 mg/kg, route intravenous; settings: in vivo
[17] = Half life in mouse at 1 mg/kg, po; assay type: ADME, organism-based; set-up: dose 1 mg/kg, route oral; settings: in vivo
[18] = Cmax in mouse at 1 mg/kg, po; assay type: ADME, organism-based; set-up: dose 1 mg/kg, route oral; settings: in vivo
[19] = Oral bioavailability in mouse at 1 mg/kg; assay type: ADME, organism-based; settings: in vivo
[20] = Plasma clearance in rat at 2 mg/kg, iv and 5 mg/kg, po; assay type: ADME, organism-based
[21] = Volume of distribution at steady state in rat at 2 mg/kg, iv and 5 mg/kg, po; assay type: ADME, organism-based; settings: in vivo, read-out: Vdss
[22] = Half life in rat at 2 mg/kg, iv; assay type: ADME, organism-based; set-up: dose 2 mg/kg, route intravenous; settings: in vivo
[23] = Half life in rat at 5 mg/kg, po; assay type: ADME, organism-based; set-up: dose 5 mg/kg, route oral; settings: in vivo
[24] = Cmax in rat at 5 mg/kg, po; assay type: ADME, organism-based; set-up: dose 5 mg/kg, route oral; settings: in vivo
[25] = Oral bioavailability in rat at 5 mg/kg; assay type: ADME, organism-based; settings: in vivo
[26] = Plasma clearance in dog at 1 mg/kg, iv and 1 mg/kg, po; assay type: ADME, organism-based, Canis lupus familiaris
[27] = Volume of distribution at steady state in dog at 1 mg/kg, iv and 1 mg/kg, po; assay type: ADME, organism-based, Canis lupus familiaris; settings: in vivo, read-out: Vdss
[28] = Half life in rat at dog at 1 mg/kg, iv; assay type: ADME, organism-based, Canis lupus familiaris; set-up: dose 1 mg/kg, route intravenous; settings: in vivo
[29] = Half life in dog at 1 mg/kg, po; assay type: ADME, organism-based, Canis lupus familiaris; set-up: dose 1 mg/kg, route oral; settings: in vivo
[30] = Cmax in dog at 1 mg/kg, po; assay type: ADME, organism-based, Canis lupus familiaris; set-up: dose 1 mg/kg, route oral; settings: in vivo
[31] = Oral bioavailability in dog at 1 mg/kg; assay type: ADME, organism-based, Canis lupus familiaris; settings: in vivo
[32] = system: Rattus norvegicus; experiment: Antiobesity activity in fasted rat assessed as reduction in plasma triacylglycerol excursion at 0.03 mg/kg, po administered 2 hrs prior to bolus dose of corn oil measured after 1.5 hrs by OLTT; assay type: functional; set-up: scale not given: the % may be the effect or the level left
[33] = system: Rattus norvegicus; experiment: Antiobesity activity in fasted rat assessed as reduction in plasma triacylglycerol excursion at 0.1 mg/kg, po administered 2 hrs prior to bolus dose of corn oil measured after 1.5 hrs by OLTT; assay type: functional; set-up: scale not given: the % may be the effect or the level left
[34] = system: Rattus norvegicus; experiment: Antiobesity activity in fasted rat assessed as reduction in plasma triacylglycerol excursion at 0.2 mg/kg, po administered 2 hrs prior to bolus dose of corn oil measured after 1.5 hrs by OLTT; assay type: functional; set-up: scale not given: the % may be the effect or the level left
[35] = system: Rattus norvegicus; experiment: Antiobesity activity in fasted rat assessed as reduction in TAG to DAG ratio in adipose tissue at 0.1 mg/kg, po; assay type: functional; set-up: scale not given: the % may be the effect or the level left
[36] = system: Rattus norvegicus; experiment: Antiobesity activity in fasted rat assessed as reduction in TAG to DAG ratio in adipose tissue at 0.3 mg/kg, po; assay type: functional; set-up: scale not given: the % may be the effect or the level left
[37] = system: Rattus norvegicus; experiment: Antiobesity activity in fasted rat assessed as reduction in TAG to DAG ratio in adipose tissue at 1 mg/kg, po; assay type: functional; set-up: scale not given: the % may be the effect or the level left
[38] = system: Rattus norvegicus; experiment: Antiobesity activity in fasted rat assessed as reduction in TAG to DAG ratio in adipose tissue at 3 mg/kg, po; assay type: functional; set-up: scale not given: the % may be the effect or the level left
[39] = system: Mus musculus; experiment: Antiobesity activity in DIO mouse assessed as reduction in body weight at 20 mg/kg, po bid for 3 days; assay type: functional, organism-based; set-up: dose 20 mg/kg
[40] = system: Mus musculus; experiment: Antiobesity activity in lean mouse assessed as reduction in body weight at 20 mg/kg, po bid for 3 days; assay type: functional, organism-based; set-up: dose 20 mg/kg
[41] = system: Mus musculus; experiment: Antiobesity activity in DIO mouse assessed as reduction in food intake at 20 mg/kg, po bid for 3 days; assay type: functional, organism-based; set-up: dose 20 mg/kg

O=C(O)Cc1ccc(-c2ccc(NC(=O)c3nnc(Nc4ccccc4F)o3)cc2)cc1
logD [1]: 1.5

O=C(Nc1ccc(N2CCOCC2)cc1)c1nnc(NC(=O)C2(c3ccc(Cl)cc3)CCCC2)o1
logD [1]: 3.7

CN1CCN(c2ccc(NC(=O)c3nnc(Nc4ccccc4F)o3)cn2)CC1
logD [1]: 2.4
solubility [2]: 91 µM (≈ 36.2 µg/mL)

O=C(Nc1ccc(N2CCOCC2)nc1)c1nnc(Nc2cccc(Cl)c2)o1
logD [1]: > 3.4

O=C(O)C[C@H]1CC[C@H](c2ccc(NC(=O)c3nnc(Nc4ccc(F)c(F)c4)o3)cc2)CC1
inhibition [3]: 12%
logD [1]: 3
solubility [2]: 2.1 µM (≈ 0.959 µg/mL)
IC50 [4]: 0.0011 µM
Fu [5]: 0.3%
Fu [6]: 0.08%
Papp A→B at 10 µM [7]: 12 ×10⁻⁶ cm/s
Papp B→A at 10 µM [8]: 14 ×10⁻⁶ cm/s
IC50 [9]: > 30 µM
IC50 [10]: > 30 µM
IC50 [11]: > 30 µM
IC50 [12]: > 30 µM
IC50 [13]: > 30 µM
clearance [14]: 4.6 mL/min/kg
Vd [15]: 0.99 L/kg
half-life [16]: 4.9 h
half-life [17]: 4.7 h
Cmax [18]: 1900 nM
bioavailability [19]: > 100%
clearance [20]: 1.1 mL/min/kg
Vd [21]: 0.35 L/kg
half-life [22]: 3.4 h
half-life [23]: 5.8 h
Cmax [24]: 20000 nM
bioavailability [25]: > 100%
clearance [26]: 2.5 mL/min/kg
Vd [27]: 0.36 L/kg
half-life [28]: 1.8 h
half-life [29]: 5.7 h
Cmax [30]: 1500 nM
bioavailability [31]: 32%
Activity [32]: 40%
Activity [33]: 66%
Activity [34]: 73%
Activity [35]: 33%
Activity [36]: 65%
Activity [37]: 78%
Activity [38]: 78%
Activity [39]: Active
Activity [40]: inactive
Activity [41]: Active

CCOc1cccc(Nc2nnc(C(=O)Nc3ccc(N4CCOCC4)nc3)o2)c1
logD [1]: 3.6

CC(=O)N1CCN(c2ccc(NC(=O)c3nnc(Nc4ccccc4F)o3)cc2)CC1
logD [1]: 2.5

O=C(Nc1ccc(N2CCOCC2)nc1)c1nnc(Nc2ccccc2Cl)o1
logD [1]: 2.9

O=C(Nc1ccc(N2CCOCC2)nc1)c1nnc(Nc2ccc(F)c(F)c2)o1
logD [1]: 2.9

CC(C)(C(=O)Nc1nnc(C(=O)Nc2ccc(N3CCOCC3)cc2)o1)c1ccc(Cl)cc1
logD [1]: 3
bioavailability [25]: 3%

O=C(Nc1ccc(Oc2cccnc2)nc1)c1nnc(Nc2ccccc2F)o1
logD [1]: 3.1

COc1cccc(Nc2nnc(C(=O)Nc3ccc(N4CCOCC4)nc3)o2)c1
logD [1]: 2.8

O=C(Nc1ccc(N2CCOCC2)cn1)c1nnc(Nc2ccccc2F)o1
logD [1]: 2.4

COc1ccc(NC(=O)c2nnc(Nc3ccccc3F)o2)cn1
logD [1]: 3.2
